Measured values published in patent US10172868B2, “Substituted quinazolines for inhibiting kinase activity” (NeuPharma, Inc., priority 2013, dated 2019).

Tests used:
EGFR (ErbB1) = EGFR (ErbB1) (Homo sapiens (Human), UniProt P00533); assay: Z'-LYTE kinase inhibition assay, EGFR; type: biochemical; conditions: for inhibition at 0.041 µM: read-out: % inhibition against EGFR (Compound at 0.041 μM); for inhibition at 1 µM: read-out: % inhibition against EGFR (Compound at 1 μM); for IC50: read-out: IC50 against EGFR
In short: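 IC50 values derived from 10-point, 3-fold compound dilution series (1% DMSO final) using Z'-LYTE fluorescence readout after 60-min development. Reaction: EGFR (1.1-5.25 ng) with 2 μM peptide, 60 min at room temperature in HEPES pH 7.5 buffer containing MgCl2, MnCl2, EGTA, DTT and BRIJ-35.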

EGFR (ErbB1) T790M L858R = EGFR (ErbB1) T790M L858R (Homo sapiens (Human), UniProt P00533, L858R/T790M); assay: Z'-LYTE kinase inhibition assay, EGFR L858R/T790M; type: biochemical; conditions: for inhibition at 0.0137 µM: read-out: % inhibition against EGFR L858R/T790M (Compound at 0.0137 μM); for IC50: read-out: IC50 against EGFR L858R/T790M; for inhibition at 1 µM: read-out: % inhibition against EGFR L858R/T790M (Compound at 1 μM)
In short: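 IC50 taken from 10-point, 3-fold serial dilutions tested in 1% DMSO. The mutant kinase and peptide were prepared in HEPES pH 6.5 buffer with BRIJ-35, MgCl2, EGTA and NaN3, then reacted with ATP for 1 h at room temperature. Development reagent was added for a further hour before the fluorescence readout.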

BTK = BTK (Homo sapiens (Human), UniProt Q06187); assay: Z'-LYTE kinase inhibition assay, BTK; type: biochemical; conditions: for inhibition at 0.041 µM: compound at 0.041 μM, read-out: % inhibition against BTK; for IC50: read-out: IC50 against BTK
In short: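 Z'-LYTE FRET assay with Tyr 01 peptide in 50 mM HEPES pH 7.5, 10 mM MgCl2, 1 mM EGTA, 0.01% BRIJ-35. Compounds in 1% DMSO were tested as 10-point, 3-fold titrations.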

JAK2 = JAK2 (Homo sapiens (Human), UniProt O60674); assay: Z'-LYTE kinase inhibition assay, JAK2; type: biochemical; conditions: compound at 0.041 μM; read-out: % inhibition against JAK2
Experimental: (§1) Inhibitory activities of compounds against BTK, EGFR and EGFR mutants (EGFR L858R, EGFR T790M, EGFR L858R/T790M), FGFR1, FGFR2, JAK2, JAK3 and KDR were measured by Invitrogen using Z'-LYTE® Method as briefly described in the following.
(§2) Test Compounds are screened in 1% DMSO (final) in the well. For 10 point titrations, 3-fold serial dilutions are conducted from the starting concentration. All ATP Solutions are diluted to a 4× working concentration in Kinase Buffer (50 mM HEPES pH 7.5, 0.01% BRIJ-35, 10 mM MgCl2, 1 mM EGTA). Peptide/Kinase Mixtures are diluted to a 2× working concentration in the appropriate Kinase Buffers as described below.
(v) Peptide/Kinase Mixtures for Measurement of JAK2:
The 2×JAK2/Tyr 06 mixture is prepared in 50 mM HEPES pH 7.5, 0.01% BRIJ-35, 10 mM MgCl2, 1 mM EGTA. The final 10 μL Kinase Reaction consists of 0.06-0.81 ng JAK2 and 2 μM Tyr 06 in 50 mM HEPES pH 7.5, 0.01% BRIJ-35, 10 mM MgCl2, 1 mM EGTA. After the 1 hour Kinase Reaction incubation, 5 μL of a 1:64 dilution of Development Reagent A is added.
(§3) Reaction starts by 30-second shaking of mixture consisting of 2.5 μL 4× test compound, […] 2× kinase reaction mixture and 2.5 μL 4×ATP Solution on Bar-coded Corning, low volume NBS, black 384-well plate (Corning Cat. #3676). Then the mixture is incubated for 60-minute at room temperature for the kinase reaction, followed by addition of 5 μL of a 1:1024 dilution of development reagent A and 30-second plate shake. The mixture is then incubated for another 60-minute at room temperature for development reaction. Finally fluorescence is read by plate reader.

A431 cells = assay: cells; conditions: Homo sapiens, A-431, 72 h, read-out: IC50 in A431 cells
Experimental: Taxol (as a positive control. Sigma) and compounds were dissolved in DMSO (Sigma), and the final concentration of DMSO in the medium was 1%. Tumor cells were plated in 96-well plates at densities of about 4000 cells/well of a 96-well plate and allowed to adhere/grow for 24 h. They were then treated with various concentrations of drug for 72 h, 3-(4,5-Dimethylthiazol-2-yl)-2,5-diphenyltetrazolium bromide (MTT, Sigma) was used to determine the number of viable cells at the time of compound addition and the number of cells remaining after 72 h compound exposure. The number of cells remaining after 72 h was compared to the number of viable cells at the time of compound addition by measuring the absorbance at 570 nm, allowing for the calculation of growth inhibition.
(§4) All concentrations of compounds were tested in triplicate and controls were averaged over 4 wells. IC50 was calculated by plotting the concentration of compound vs the percentage of inhibition in treated wells using GraphPad Prism 5.
The scale utilized in Tables 5 is as follows: +++ less than 100 nM; ++ between 100 nM and 500 nM; and + greater than 500 nM.

H1975 cells = assay: Inhibition of cancer cell growth, MTT assay, H1975; conditions: Homo sapiens, NCI-H1975, 72 h, read-out: IC50 in H1975 cells
H3255 cells = assay: Inhibition of cancer cell growth, MTT assay, H3255; conditions: Homo sapiens, NCI-H3255, 72 h, read-out: IC50 in H3255 cells
Experimental: (§5) Inhibition of cell growth by compounds was measured using MTT assay (Mosmann, T., Journal of Immunological Methods, 1983, 65, 55-63). Tumor cell lines were purchased from ATCC (American Type Culture Collection, Manassas, Va.). All cell lines were maintained in RPMI 1640 (Hyclone) supplemented with 10% fetal bovine serum (FBS, Hyclone), glutamine (2 mM, Hyclone), and antibiotics (penicillin 100 U/mL and streptomycin 50 μg/mL) at 37° C. in a humidified atmosphere of 5% CO2 in air. Taxol (as a positive control. Sigma) and compounds were dissolved in DMSO (Sigma), and the final concentration of DMSO in the medium was 1%. Tumor cells were plated in 96-well plates at densities of about 4000 cells/well of a 96-well plate and allowed to adhere/grow for 24 h. They were then treated with various concentrations of drug for 72 h, 3-(4,5-Dimethylthiazol-2-yl)-2,5-diphenyltetrazolium bromide (MTT, Sigma) was used to determine the number of viable cells at the time of compound addition and the number of cells remaining after 72 h compound exposure. The number of cells remaining after 72 h was compared to the number of viable cells at the time of compound addition by measuring the absorbance at 570 nm, allowing for the calculation of growth inhibition.
as §4

H1299 cells = assay: Inhibition of cancer cell growth, MTT assay, H1299; conditions: Homo sapiens, NCI-H1299, 72 h, read-out: IC50 in H1299 cells
Experimental: as §5, §4

FGFR1 = FGFR1 (Homo sapiens (Human), UniProt P11362); assay: Z'-LYTE kinase inhibition assay, FGFR1; type: biochemical; conditions: compound at 0.041 μM; read-out: % inhibition against FGFR1
Experimental: as §1, §2
(v) Peptide/Kinase Mixtures for Measurement of FGFR1:
The 2×FGFR1/Tyr 04 mixture is prepared in 50 mM HEPES pH 7.5, 0.01% BRIJ-35, 10 mM MgCl2, 4 mM MnCl2, 1 mM EGTA, 2 mM DTT. The final 10 μL Kinase Reaction consists of 0.41-3.5 ng FGFR1 and 2 μM Tyr 04 in 50 mM HEPES pH 7.5, 0.01% BRIJ-35, 10 mM MgCl2, 2 mM MnCl2, 1 mM EGTA, 1 mM DTT. After the 1 hour Kinase Reaction incubation, 5 μL of a 1:64 dilution of Development Reagent B is added.
as §3
To determine IC50 of a compound against EGFR, EGFR mutant and other kinases, a series of concentrations of the compound were tested for the inhibition. […] The scale utilized in Table 4 is as follows: +++ less than 100 nM, ++ 100-500 nM and + greater than 500 nM.

HCC827 cells = assay: cells; conditions: Homo sapiens, HCC827, 72 h, read-out: IC50 in HCC827 cells

Sequence of EGFR (ErbB1) (P00533 25-1210): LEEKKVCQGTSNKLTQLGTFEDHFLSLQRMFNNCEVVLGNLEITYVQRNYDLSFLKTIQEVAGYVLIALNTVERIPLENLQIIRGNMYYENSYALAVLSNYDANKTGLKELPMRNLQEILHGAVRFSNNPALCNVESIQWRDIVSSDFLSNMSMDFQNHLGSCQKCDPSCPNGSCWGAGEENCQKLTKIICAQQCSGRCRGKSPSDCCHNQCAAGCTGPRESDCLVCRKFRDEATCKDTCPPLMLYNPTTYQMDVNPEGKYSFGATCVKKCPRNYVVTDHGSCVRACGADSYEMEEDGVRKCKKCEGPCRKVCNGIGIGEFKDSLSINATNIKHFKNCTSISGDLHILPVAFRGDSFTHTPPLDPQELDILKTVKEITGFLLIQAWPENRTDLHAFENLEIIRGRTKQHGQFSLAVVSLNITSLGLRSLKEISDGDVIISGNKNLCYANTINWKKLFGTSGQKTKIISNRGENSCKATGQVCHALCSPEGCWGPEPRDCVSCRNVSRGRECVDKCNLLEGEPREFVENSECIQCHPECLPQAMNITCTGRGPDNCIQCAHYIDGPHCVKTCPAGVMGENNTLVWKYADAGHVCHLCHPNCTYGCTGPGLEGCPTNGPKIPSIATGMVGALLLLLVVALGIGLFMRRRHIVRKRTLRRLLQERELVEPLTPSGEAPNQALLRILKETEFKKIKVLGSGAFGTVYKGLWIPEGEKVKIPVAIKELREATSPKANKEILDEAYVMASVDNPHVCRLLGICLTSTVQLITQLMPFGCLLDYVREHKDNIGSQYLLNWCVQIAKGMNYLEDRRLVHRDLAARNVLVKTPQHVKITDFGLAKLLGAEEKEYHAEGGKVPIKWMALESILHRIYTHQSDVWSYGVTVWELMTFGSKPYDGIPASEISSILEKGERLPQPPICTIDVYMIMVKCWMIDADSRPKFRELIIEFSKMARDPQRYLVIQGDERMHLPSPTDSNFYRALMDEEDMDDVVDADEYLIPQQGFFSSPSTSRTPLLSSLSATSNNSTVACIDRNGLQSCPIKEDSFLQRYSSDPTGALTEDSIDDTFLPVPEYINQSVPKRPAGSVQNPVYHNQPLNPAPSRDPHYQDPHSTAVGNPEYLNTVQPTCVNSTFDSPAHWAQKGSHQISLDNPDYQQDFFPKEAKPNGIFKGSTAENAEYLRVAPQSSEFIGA
Sequence of FGFR1 (P11362 22-822): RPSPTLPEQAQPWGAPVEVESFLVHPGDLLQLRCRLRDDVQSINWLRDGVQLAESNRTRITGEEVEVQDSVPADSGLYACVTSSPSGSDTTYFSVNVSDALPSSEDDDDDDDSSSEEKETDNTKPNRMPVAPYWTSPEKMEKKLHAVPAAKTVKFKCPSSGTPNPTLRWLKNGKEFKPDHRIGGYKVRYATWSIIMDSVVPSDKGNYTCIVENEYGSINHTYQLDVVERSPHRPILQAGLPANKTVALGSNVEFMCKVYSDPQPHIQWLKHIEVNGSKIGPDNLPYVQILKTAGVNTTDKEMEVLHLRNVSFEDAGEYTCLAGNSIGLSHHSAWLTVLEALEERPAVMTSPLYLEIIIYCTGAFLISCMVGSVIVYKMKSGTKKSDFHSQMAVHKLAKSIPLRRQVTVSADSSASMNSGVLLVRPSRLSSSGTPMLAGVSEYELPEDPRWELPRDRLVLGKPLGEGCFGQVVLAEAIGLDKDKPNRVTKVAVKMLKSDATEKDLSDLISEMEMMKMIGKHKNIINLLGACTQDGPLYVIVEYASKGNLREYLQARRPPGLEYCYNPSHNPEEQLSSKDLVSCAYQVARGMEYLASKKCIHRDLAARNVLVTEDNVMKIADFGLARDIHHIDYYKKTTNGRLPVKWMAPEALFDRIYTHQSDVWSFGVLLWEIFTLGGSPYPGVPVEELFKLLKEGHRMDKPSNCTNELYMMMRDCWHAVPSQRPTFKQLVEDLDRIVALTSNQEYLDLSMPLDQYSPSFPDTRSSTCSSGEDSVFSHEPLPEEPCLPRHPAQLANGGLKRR
Sequence of BTK (Q06187 whole entry): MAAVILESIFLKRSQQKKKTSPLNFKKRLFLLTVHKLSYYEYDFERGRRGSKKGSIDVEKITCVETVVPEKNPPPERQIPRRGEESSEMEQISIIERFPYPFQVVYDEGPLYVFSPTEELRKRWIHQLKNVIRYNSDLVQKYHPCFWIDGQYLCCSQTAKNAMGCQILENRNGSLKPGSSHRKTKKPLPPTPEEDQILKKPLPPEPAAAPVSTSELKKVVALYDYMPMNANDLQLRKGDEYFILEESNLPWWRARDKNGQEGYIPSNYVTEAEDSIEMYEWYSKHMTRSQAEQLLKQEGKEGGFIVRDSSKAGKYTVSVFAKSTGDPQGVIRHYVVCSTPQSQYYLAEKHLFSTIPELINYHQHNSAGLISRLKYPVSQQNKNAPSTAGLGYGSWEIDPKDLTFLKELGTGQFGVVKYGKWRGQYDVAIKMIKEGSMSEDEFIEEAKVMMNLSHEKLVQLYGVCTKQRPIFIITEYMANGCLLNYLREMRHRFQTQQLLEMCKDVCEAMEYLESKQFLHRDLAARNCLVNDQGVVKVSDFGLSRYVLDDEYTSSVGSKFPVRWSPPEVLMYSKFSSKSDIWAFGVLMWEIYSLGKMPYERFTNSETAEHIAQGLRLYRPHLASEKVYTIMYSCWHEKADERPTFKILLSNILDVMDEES
Sequence of JAK2 (O60674 whole entry): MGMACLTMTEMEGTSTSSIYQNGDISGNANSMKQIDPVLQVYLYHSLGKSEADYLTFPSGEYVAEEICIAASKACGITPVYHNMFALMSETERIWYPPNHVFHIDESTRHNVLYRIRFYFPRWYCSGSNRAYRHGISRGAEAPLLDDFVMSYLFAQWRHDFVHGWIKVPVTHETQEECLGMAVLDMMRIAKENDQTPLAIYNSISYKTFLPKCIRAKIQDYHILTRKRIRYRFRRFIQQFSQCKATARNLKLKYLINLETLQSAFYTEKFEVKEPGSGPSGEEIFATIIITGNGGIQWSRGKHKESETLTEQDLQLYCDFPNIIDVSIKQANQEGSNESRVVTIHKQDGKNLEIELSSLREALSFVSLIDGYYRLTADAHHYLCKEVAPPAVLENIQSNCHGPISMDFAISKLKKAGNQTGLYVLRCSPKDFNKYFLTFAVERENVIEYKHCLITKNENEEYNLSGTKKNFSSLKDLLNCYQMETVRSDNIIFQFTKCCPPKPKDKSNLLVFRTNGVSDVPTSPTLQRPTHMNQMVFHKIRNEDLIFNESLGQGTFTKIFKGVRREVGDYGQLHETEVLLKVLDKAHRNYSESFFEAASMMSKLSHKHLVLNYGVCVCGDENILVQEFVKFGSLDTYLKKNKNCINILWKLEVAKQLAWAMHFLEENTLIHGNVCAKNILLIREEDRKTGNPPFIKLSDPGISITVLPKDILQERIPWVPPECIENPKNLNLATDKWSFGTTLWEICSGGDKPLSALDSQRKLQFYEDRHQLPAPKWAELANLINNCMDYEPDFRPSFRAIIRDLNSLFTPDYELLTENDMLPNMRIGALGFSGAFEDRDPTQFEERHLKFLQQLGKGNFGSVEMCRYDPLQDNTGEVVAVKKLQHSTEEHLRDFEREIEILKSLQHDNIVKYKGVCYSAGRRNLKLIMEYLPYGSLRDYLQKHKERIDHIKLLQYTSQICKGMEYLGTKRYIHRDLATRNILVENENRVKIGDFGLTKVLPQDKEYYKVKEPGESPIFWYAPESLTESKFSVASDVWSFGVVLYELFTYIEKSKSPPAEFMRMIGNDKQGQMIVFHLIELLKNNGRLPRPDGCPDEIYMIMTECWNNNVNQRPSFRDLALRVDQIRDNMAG
Sequence of EGFR (ErbB1) T790M L858R (P00533 25-1210 T790M/L858R): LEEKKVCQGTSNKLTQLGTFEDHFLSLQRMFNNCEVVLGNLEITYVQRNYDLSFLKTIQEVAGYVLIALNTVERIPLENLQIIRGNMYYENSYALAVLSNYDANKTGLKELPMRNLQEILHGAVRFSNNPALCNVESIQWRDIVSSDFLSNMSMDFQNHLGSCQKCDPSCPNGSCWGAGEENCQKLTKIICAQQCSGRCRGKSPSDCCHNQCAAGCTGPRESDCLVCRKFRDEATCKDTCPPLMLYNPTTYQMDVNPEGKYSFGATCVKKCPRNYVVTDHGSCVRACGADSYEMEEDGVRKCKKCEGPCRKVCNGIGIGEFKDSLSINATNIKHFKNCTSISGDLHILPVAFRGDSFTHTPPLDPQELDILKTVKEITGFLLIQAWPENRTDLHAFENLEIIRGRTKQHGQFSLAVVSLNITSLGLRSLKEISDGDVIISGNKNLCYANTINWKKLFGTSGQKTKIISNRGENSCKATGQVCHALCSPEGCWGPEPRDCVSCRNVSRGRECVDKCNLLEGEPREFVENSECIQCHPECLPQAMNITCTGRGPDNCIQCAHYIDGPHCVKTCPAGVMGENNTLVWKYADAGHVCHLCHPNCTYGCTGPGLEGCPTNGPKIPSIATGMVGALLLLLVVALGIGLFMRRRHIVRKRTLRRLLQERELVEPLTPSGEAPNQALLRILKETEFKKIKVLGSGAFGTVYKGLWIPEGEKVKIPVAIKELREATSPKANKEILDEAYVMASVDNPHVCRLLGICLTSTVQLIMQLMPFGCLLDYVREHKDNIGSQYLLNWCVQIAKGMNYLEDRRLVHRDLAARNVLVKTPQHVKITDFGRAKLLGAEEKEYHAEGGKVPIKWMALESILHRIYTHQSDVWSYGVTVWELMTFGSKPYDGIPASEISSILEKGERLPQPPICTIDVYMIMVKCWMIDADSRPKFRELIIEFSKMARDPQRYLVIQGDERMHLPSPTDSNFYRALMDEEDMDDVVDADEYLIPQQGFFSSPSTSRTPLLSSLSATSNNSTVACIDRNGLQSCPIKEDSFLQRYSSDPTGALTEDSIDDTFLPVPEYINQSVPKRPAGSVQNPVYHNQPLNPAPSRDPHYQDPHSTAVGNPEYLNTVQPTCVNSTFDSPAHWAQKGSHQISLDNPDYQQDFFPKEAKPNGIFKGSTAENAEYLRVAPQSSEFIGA

inhibition at 0.041 µM (EGFR (ErbB1)) [%]	inhibition at 0.0137 µM (EGFR (ErbB1) T790M L858R) [%]	inhibition at 0.041 µM (BTK) [%]	inhibition at 0.041 µM (JAK2) [%]	IC50 (A431 cells) [nM]	IC50 (H1975 cells) [nM]	IC50 (H3255 cells) [nM]	IC50 (H1299 cells) [nM]	inhibition at 1 µM (EGFR (ErbB1) T790M L858R) [%]	inhibition at 0.041 µM (FGFR1) [%]	IC50 (HCC827 cells) [nM]	SMILES	IC50 (EGFR (ErbB1) T790M L858R) [nM]	IC50 (BTK) [nM]	inhibition at 1 µM (EGFR (ErbB1)) [%]	IC50 (EGFR (ErbB1)) [nM]
< 50	> 50	< 50	< 50	100 to 500	100 to 500	–	–	–	–	–	C=CC(=O)Nc1cccc(-c2cccc3cnc(Nc4ccc(N5CCN(C)CC5)nc4OC)nc23)c1 [Example C055, N-(3-(2-((2-methoxy-6-(4-methylpiperazin-1-yl)pyridin-3-yl)amino)quinazolin-8-yl)phenyl)acrylamide]	–	–	–	–
> 50	> 50	> 50	> 50	> 500	100 to 500	–	–	–	–	–	C=CC(=O)Nc1cccc(-c2cccc3cnc(Nc4ccc(N5CCN(C)CC5)cc4)nc23)c1Cl [Example C054, N-(2-chloro-3-(2-((4-(4-methylpiperazin-1-yl)phenyl)amino)quinazolin-8-yl)phenyl)acrylamide]	< 100	–	–	–
> 50	> 50	–	–	> 500	< 100	> 500	> 500	–	–	–	C=CC(=O)Nc1cccc(-c2c(F)ccc3cnc(Nc4ccc(N5CCN(CCF)CC5)cc4)nc23)c1 [Example C088, N-(3-(7-fluoro-2-((4-(4-(2-fluoroethyl)piperazin-1-yl)phenyl)amino)quinazolin-8-yl)phenyl)acrylamide]	< 100	–	–	–
> 50	> 50	–	–	100 to 500	< 100	> 500	> 500	–	–	–	C=CC(=O)Nc1cccc(-c2cccc3cnc(Nc4ccc(NC5CN(CCO)C5)cc4)nc23)c1 [Example C099, N-(3-(2-((4-((1-(2-hydroxyethyl)azetidin-3-yl)amino)phenyl)amino)quinazolin-8-yl)phenyl)acrylamide]	< 100	< 100	–	< 100

The next lines start with the compound.

SMILES	inhibition at 0.041 µM (EGFR (ErbB1)) [%]	inhibition at 0.0137 µM (EGFR (ErbB1) T790M L858R) [%]	inhibition at 0.041 µM (BTK) [%]	inhibition at 0.041 µM (JAK2) [%]	IC50 (A431 cells) [nM]	IC50 (H1975 cells) [nM]	IC50 (H3255 cells) [nM]	IC50 (H1299 cells) [nM]	inhibition at 1 µM (EGFR (ErbB1) T790M L858R) [%]	inhibition at 0.041 µM (FGFR1) [%]	IC50 (HCC827 cells) [nM]	IC50 (EGFR (ErbB1) T790M L858R) [nM]	IC50 (BTK) [nM]	inhibition at 1 µM (EGFR (ErbB1)) [%]	IC50 (EGFR (ErbB1)) [nM]
C=CC(=O)Nc1cccc(-c2cccc3cnc(Nc4ccc(N5CCN(C)CC5)c(C(N)=O)c4)nc23)c1 [Example C085, 5-((8-(3-acrylamidophenyl)quinazolin-2-yl)amino)-2-(4-methylpiperazin-1-yl)benzamide]	< 50	–	–	–	100 to 500	< 100	> 500	> 500	–	–	–	< 100	< 100	–	–
Fc1ccc(OCCN2CCOCC2)cc1-c1cccc2cnc(Nc3ccc(N4CCOCC4)cc3)nc12 [Example C023, 8-(2-fluoro-5-(2-morpholinoethoxy)phenyl)-N-(4-morpholinophenyl)quinazolin-2-amine]	–	–	< 50	< 50	–	> 500	–	–	< 50	< 50	> 500	–	–	< 50	–
Clc1ccccc1-c1cccc2cnc(Nc3ccc(N4CCNCC4)cc3)nc12 [Example C026, 8-(2-chlorophenyl)-N-(4-(piperazin-1-yl)phenyl)quinazolin-2-amine]	–	–	< 50	> 50	–	> 500	–	–	> 50	> 50	> 500	–	–	–	–
CC(=O)Nc1cccc(-c2cccc3cnc(Nc4ccc(N5CCN(C)CC5)cc4)nc23)c1 [Example C022, N-(3-(2-((4-(4-methylpiperazin-1-yl)phenyl)amino)quinazolin-8-yl)phenyl)acetamide]	–	–	> 50	> 50	–	> 500	–	–	> 50	> 50	< 100	–	–	–	–
C=CC(=O)Nc1cccc(-c2c(C)ccc3cnc(Nc4ccc(N5CCN(C(C)=O)CC5)cc4)nc23)c1 [Example C035, N-(3-(2-((4-(4-acetylpiperazin-1-yl)phenyl)amino)-7-methylquinazolin-8-yl)phenyl)acrylamide]	–	–	–	–	> 500	< 100	–	> 500	–	–	< 100	–	–	–	–
C=CC(=O)Nc1cccc(-c2c(C)ccc3cnc(Nc4ccc(N5CCN(C)CC5)cc4)nc23)c1 [Example C034, N-(3-(7-methyl-2-((4-(4-methylpiperazin-1-yl)phenyl)amino)quinazolin-8-yl)phenyl)acrylamide]	> 50	–	–	–	> 500	< 100	–	> 500	–	–	< 100	< 100	–	> 50	< 100
C=CC(=O)Nc1cccc(-c2cccc3cnc(Nc4ccc(N5CCN(C(C)=O)CC5)cc4)nc23)c1 [Example C032, N-(3-(2-((4-(4-acetylpiperazin-1-yl)phenyl)amino)quinazolin-8-yl)phenyl)acrylamide]	–	–	> 50	> 50	100 to 500	100 to 500	–	> 500	–	–	< 100	< 100	–	> 50	–
C=CC(=O)Nc1cccc(-c2c(C)ccc3cnc(Nc4ccc(N5CCOCC5)cc4)nc23)c1 [Example C033, N-(3-(7-methyl-2-((4-morpholinophenyl)amino)quinazolin-8-yl)phenyl)acrylamide]	–	–	> 50	< 50	–	100 to 500	–	> 500	> 50	–	< 100	–	–	> 50	–
C=CC(=O)Nc1cccc(-c2cccc3cnc(Nc4ccc(N5CCN(C(C)=O)CC5)nc4)nc23)c1 [Example C036, N-(3-(2-((6-(4-acetylpiperazin-1-yl)pyridin-3-yl)amino)quinazolin-8-yl)phenyl)acrylamide]	–	–	–	–	–	> 500	–	> 500	–	< 50	< 100	–	–	–	–
